Measured values taken from patent US9359371B2, “Bicyclic substituted pyrimidine compounds” (Xuanzhu Pharma Co., Ltd., priority 2012, dated 2016).
Read-outs that look alike come from different tables or passages of the source.

Assays:
[1] = target: PDE-5 enzyme (human blood platelets) (Homo sapiens (Human), UniProt O76074); assay: PDE-5 enzyme assay, [3H]cGMP; assay type: biochemical
bovine retinal PDE-6 [2] = target: bovine retinal PDE-6 (Bos taurus (Bovine), UniProt P11541+P23439); assay: PDE-6 enzyme assay, [3H]cGMP; assay type: biochemical
Protocol: (§1) Experiment 3: Measurement of Enzyme Activity on PDE-6 Enzyme In Vitro
(§2) Source of enzyme: PDE-6, bovine retinal PDE-6
(§3) Method: The test compound or solvent was incubated at 25° C. for 15 min with enzyme solution (0.2 μg/mL) in Tris-HCl buffer of pH 7.5. 100 μM cGMP and 0.03 μM [^3H] cGMP were then added to activate the reaction. The mixture was incubated for 20 min. The reaction was stopped at 100° C. By addition of snake venom nucleotidase, the product [^3H] GMP was converted into [^3H] Guanosine, which was separated with AG1-X2 resin. The amount of [^3H] Guanosine was measured.

bovine retinal PDE-6 [3] = assay: PDE-6 enzyme assay, [3H]cGMP; assay type: biochemical
Protocol: as §1, §2, §3

PDE-11 = PDE-11 (Homo sapiens (Human), UniProt Q9HCR9); assay: Caliper Mobility-Shift PDE-11 Assay; assay type: biochemical; details: Table 4; maximum final concentration 10 μM
Protocol: Experiment 4: Measurement of Pharmacological Activity on PDE-11 Enzyme In Vitro
Method: enzyme assay, Caliper Mobility-Shift PDE-11 Assay
The test compound was accurately weighed, dissolved in DMSO, mixed thoroughly and formulated into 10 mM. The above stock solution was diluted to a concentration of 0.5 mM with DMSO, and then was gradiently diluted by a dilution factor of 3.162, resulting in 11 concentrations in total.
To a 96-well plate, 20 μL of 10 μM FL-cGMP as the substrate was added; then 1 μL solution of the compound in DMSO or DMSO solution without compound was added; and then 29 μL of 0.28 ng/μL PDE-11 enzyme buffer (100 mM Hepes pH 7.5, 5 mM MgCl2, 0.002% Brij-35) was added. The maximum final concentration of the compound was 10 μM. The plate was incubated at 30° C. for 1 h, and 20 μL of 70 μM EDTA was then added to stop the reaction. 26 μL of solution of each well was transferred to a 384-well plate. The conversion was read on a EZ reader II. The Inhibition rate was calculated by the formula below, and used to calculate IC50 by Prism 5.0 Inhibition rate=[Conversion (ZPE)−Conversion (sample)]×100/[Conversion (ZPE)−Conversion (HPE)]
Note: HPE: control without enzyme; ZPE: control without compound

[4] = Pharmacokinetics (PK) in SD rats; assay type: in vivo; details: rat, 1 mg/kg
[5] = SD, plasma, po, intragastric administration
[6] = SD, plasma, intravenous injection

Sequence of bovine retinal PDE-6 (Bos taurus (Bovine), UniProt P11541+P23439) (P11541 whole entry, looked up): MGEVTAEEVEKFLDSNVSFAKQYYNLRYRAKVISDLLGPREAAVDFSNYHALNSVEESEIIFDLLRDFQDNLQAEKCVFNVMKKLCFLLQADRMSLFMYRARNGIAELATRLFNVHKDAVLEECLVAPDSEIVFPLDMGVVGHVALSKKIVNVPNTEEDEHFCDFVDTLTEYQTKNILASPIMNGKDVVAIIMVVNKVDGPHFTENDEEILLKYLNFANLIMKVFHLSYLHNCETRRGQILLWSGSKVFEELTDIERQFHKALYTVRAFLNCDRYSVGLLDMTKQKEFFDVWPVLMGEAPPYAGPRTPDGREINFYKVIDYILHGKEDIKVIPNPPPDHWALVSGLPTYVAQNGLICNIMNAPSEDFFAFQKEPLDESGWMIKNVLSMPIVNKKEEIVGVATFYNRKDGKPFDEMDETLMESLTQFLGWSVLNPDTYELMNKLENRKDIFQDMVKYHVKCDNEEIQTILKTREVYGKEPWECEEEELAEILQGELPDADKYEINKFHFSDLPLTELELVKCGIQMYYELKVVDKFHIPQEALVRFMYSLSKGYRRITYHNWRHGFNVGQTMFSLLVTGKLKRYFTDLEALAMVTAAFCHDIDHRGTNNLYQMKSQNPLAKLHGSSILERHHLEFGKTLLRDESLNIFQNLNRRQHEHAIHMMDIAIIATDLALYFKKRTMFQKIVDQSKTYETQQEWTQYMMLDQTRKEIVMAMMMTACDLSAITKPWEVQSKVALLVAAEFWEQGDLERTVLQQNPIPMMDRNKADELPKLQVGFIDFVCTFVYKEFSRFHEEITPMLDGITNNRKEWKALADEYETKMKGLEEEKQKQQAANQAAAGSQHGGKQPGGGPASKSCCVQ
Sequence of bovine retinal PDE-6 (Bos taurus (Bovine), UniProt P11541+P23439) (P23439 whole entry, looked up): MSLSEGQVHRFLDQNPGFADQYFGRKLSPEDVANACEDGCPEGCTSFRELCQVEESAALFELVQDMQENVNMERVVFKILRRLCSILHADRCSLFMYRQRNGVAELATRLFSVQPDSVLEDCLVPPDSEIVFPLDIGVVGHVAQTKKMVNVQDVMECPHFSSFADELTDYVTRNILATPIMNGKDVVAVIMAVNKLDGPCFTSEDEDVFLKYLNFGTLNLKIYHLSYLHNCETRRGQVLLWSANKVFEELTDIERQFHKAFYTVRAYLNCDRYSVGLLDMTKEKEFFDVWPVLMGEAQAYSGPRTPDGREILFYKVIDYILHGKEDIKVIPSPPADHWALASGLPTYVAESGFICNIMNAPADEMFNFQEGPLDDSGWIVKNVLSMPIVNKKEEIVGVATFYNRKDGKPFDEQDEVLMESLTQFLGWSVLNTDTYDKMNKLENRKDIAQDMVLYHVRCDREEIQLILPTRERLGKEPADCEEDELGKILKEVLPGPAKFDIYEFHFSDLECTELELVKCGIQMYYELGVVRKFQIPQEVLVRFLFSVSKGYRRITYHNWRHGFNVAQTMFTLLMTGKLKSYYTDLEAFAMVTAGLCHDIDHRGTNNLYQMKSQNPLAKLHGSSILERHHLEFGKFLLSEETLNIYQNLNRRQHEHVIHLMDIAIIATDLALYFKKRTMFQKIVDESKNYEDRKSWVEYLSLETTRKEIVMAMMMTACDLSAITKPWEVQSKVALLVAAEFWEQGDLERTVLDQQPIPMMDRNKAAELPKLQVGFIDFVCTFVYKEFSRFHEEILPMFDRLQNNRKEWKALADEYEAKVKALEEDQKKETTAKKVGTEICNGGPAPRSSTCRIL
Sequence of PDE-11 (Q9HCR9 whole entry): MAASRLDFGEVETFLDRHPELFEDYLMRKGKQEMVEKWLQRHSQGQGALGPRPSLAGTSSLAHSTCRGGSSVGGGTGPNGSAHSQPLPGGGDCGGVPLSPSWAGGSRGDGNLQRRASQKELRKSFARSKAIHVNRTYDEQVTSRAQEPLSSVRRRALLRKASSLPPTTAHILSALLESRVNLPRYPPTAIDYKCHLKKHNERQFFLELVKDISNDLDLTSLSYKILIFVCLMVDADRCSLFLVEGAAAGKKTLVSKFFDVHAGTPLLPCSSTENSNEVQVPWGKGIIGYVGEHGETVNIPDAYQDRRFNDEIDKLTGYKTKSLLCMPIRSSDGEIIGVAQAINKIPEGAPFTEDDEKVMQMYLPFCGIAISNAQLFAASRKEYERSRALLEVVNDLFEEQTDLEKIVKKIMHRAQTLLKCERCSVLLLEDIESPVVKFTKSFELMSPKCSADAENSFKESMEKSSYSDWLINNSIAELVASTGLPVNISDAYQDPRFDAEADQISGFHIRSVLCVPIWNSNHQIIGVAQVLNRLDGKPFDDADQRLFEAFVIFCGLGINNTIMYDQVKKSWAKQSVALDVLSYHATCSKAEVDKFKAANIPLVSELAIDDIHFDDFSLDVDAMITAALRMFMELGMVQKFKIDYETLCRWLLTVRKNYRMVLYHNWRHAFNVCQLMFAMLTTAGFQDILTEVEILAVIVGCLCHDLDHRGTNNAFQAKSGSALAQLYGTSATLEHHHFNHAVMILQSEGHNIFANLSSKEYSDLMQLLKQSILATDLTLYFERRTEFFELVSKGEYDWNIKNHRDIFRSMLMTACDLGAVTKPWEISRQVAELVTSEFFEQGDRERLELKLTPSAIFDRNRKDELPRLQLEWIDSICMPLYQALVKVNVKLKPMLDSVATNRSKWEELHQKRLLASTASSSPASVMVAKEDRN

In the case of `COc1ccc(CNc2nc(N3CC4CC4C3)ncc2C(=O)N[C@H]2CC[C@H](O)CC2)cc1Cl` (stereo partly drawn) [Compound 11, 2-(3-azabicyclo[3.1.0]hexan-3-yl)-4-((3-chloro-4-methoxybenzyl)amino)-N-(trans-4-hydroxycyclohexyl)pyrimidine-5-formamide], the IC50 ([1]; Table 2-1, repetition, read-out: IC50 on PDE-5 (repetition of Example 2)) is reported as 0.41 nM, the IC50 ([1]; Table 2, human blood platelet enzyme, read-out: IC50 on PDE-5) is reported as 1.31 nM and the IC50 ([1]; Table 4-1, read-out: PDE-5 (IC50 nM)) is reported as 0.41 nM. The IC50 (bovine retinal PDE-6 [2]; Table 3, read-out: IC50 on PDE-6) was 61 nM, the IC50 (bovine retinal PDE-6 [2]; Table 4-1, read-out: PDE-6 (IC50 nM)) was 61 nM and the “Selectivity (PDE-6/PDE-5)” value (bovine retinal PDE-6 [3]; IC50 for PDE-6/IC50 for PDE-5) was 148. The “selectivity on PDE-5 enzyme versus PDE-6 (in words)” value (bovine retinal PDE-6 [3]; selectivity >70 called high) was “higher selectivity on PDE-5 enzyme than to PDE-6”, the IC50 (PDE-11) was > 10000 nM and the AUC(0-inf) [4, 5] was 604 ng·h/mL. The Cmax [4, 5] was 133 ng/mL, the Tmax [4, 5] was 1 h and the half-life [4, 5] was 2.03 h. For the same compound, the bioavailability ([4]; SD, plasma, po, intragastric administration, read-out: F % (absolute bioavailability)) was 70.4%, the AUC(0-inf) [4, 6] was 858 ng·h/mL and the half-life [4, 6] was 2.4 h. For the same compound, the AUCinf ([4]; intragastric administration) was “higher exposure quality (AUC)”, the “F % (absolute bioavailability)” value ([4]; intragastric administration) was “higher exposure quality (AUC) and bioavailability than Compound WO-88” and the AUCinf ([4]; intravenous injection) was “higher exposure quality (AUC)”. For the same compound, the Cl_obs ([4]; intravenous injection) was 19.7 mL/min/kg, the T1/2 ([4]; intravenous injection) was “longer half-life” and the Vss_obs ([4]; intravenous injection) was 3.44 L/kg.
